Experimental data published in PMC11674800, “Second-Generation Antipsychotics Induce Metabolic Disruption in Adipose Tissue-Derived Mesenchymal Stem Cells Through an aPKC-Dependent Pathway” (Cells, 2024).

Assays:
PKCζ = assay: PKC activation (Western blot, P-PKCζ T560 immunofluorescence); type: cell-based, human; settings: 5 μM, 16 h
Description: (§1) After treatments, whole-cell lysates were prepared using RIPA lysis buffer supplemented with protease inhibitors (AEBSF, aprotinin, bestatin, E-64, EDTA, leupeptin, Sigma-Aldrich, Saint Louis, MO, USA) and orthovanadate (Sigma-Aldrich, Saint Louis, MO, USA). The proteins in the lysates were collected and quantified using the Pierce BCA protein assay kit (Thermo Fisher Scientific, Waltham, MA, USA). Subsequently, the proteins were denatured by heating at 95 °C for 5 min in the presence of 2% Sodium Dodecyl Sulfate (SDS, Sigma-Aldrich, Saint Louis, MO, USA), 150 mM dithiothreitol (DTT, Sigma-Aldrich, Saint Louis, MO, USA), and 0.01% bromophenol blue (Sigma-Aldrich, Saint Louis, MO, USA). The samples were then analyzed using SDS-PAGE (SDS-Polyacrylamide Gel Electrophoresis) and Western blotting (WB).
(§2) For INSRβ endocytosis experiments, the cells were stimulated with 50 ng/mL insulin for 15 min. For transferrin endocytosis experiments, the cells were incubated with 25 μg/mL Transferrin Texas Red for 5 min. After treatment, the cells were washed with PBS and fixed with 4% PFA for 10 min at room temperature, followed by an additional PBS wash. The cells were then permeabilized by incubating them with cold HEPES-Triton X-100 buffer for 5 min at 4 °C. After permeabilization, the cells were incubated with primary antibodies for 30 min, followed by incubation with Alexa Fluor 488- or 546-conjugated secondary antibodies (Invitrogen, Waltham, MA, USA) and phalloidin, labeled with either Alexa Fluor 546 or 633 (Invitrogen Waltham, MA, USA) for 30 min. After incubation, coverslips were mounted on glass slides using a mounting medium. Images were acquired using a confocal microscope (Leica TCS SP8, Wetzlar, Germany) and analyzed using ImageJ (v 1.52a) software in order to quantify and analyze the fluorescence signals.

cathepsin B = assay: Cathepsin B Western blot; type: cell-based, human; settings: 5 μM, 16 h
Description: as §1

ADSCs [1] = assay: Vacuolization assay; type: cell-based, human; settings: 5 μM, 4 h
Description: After 4 h, pictures were acquired using a phase contrast microscope (DMi1, Leica, Wetzlar, Germany).

ADSCs [2] = assay: Transferrin uptake (clathrin-dependent endocytosis); type: cell-based, human; settings: 16 h treatment; transferrin 5 min
Description: as §2

ADSCs [3] = settings: 7 days; 1 to 50 μM
ADSCs [4] = assay: Adipogenic differentiation, lipid droplet staining (HCS LipidTox); type: cell-based, human; settings: 5 µM; after three weeks of differentiation
Description: ADSCs were plated at a density of 70,000 cells/well in a 12-well plate using DMEM with 10% FBS. When the cells reached about 90% confluence, the culture medium was removed and substituted with WAT-differentiating medium containing DMEM 10% FBS, insulin (1 μM), dexamethasone (DEXA, 1 μM), IBMX (0.5 mM), and rosiglitazone ([…]). After 3 days of exposure to the differentiating medium, the cells were cultured in a maintenance medium containing only insulin (1 μM) and rosiglitazone (1 μM) for 14 days. The medium was changed every 3 days. The differentiation results were evaluated by staining the cells with HCS LipidTOX™ for neutral lipids (Thermo Fisher Scientific, Waltham, MA, USA) after 21 days. The cells were fixed using 4% paraformaldehyde (PFA, Sigma-Aldrich, SaintLouis, MO, USA) for 15 min at room temperature; then, each well was stained using HCS LipidTox and Hoechst 33342 and incubated at room temperature for 30 min. After this incubation, the cells were washed with water. Images were acquired using fluorescence microscopy (FLoid Cell Imaging Station, Life Technology, Carlsbad, CA, USA) or light microscopy (DMi1, Leica, Wetzlar, Germany) and analyzed using ImageJ software (v 1.52a).

3T3L1 cells = assay: PA accumulation in cells transfected with DOCK2-Pii; type: cell-based, mouse; settings: 5 μM, 16 h; compared to untreated controls
Description: Transfection was carried out using Lipofectamine 3000 (Thermo Fisher Scientific, Waltham, MA, USA), following the manufacturer’s instructions. The cells were incubated with the plasmid for 24 h to ensure successful transfection and plasmid expression and were used for experiments 48 h post-transfection.

TFEB = TFEB nuclear localization (confocal microscopy); type: cell-based, human; settings: 5 μM, 16 h; compared to untreated cells
Description: as §2

[5] = system: PPARG, FABP4, HSL, and LPL; assay: Adipogenic gene expression (real-time PCR); type: cell-based, human; settings: differentiated cells cotreated with 5 µM
Description: After treatment, RNA was extracted using the phenol/chloroform method (RNAzol, Sigma-Aldrich, Saint Louis, MO, USA) followed by isopropanol precipitation, according to the manufacturer’s instructions. The precipitated RNA was then washed with 75% ice-cold ethanol and resuspended in water. The RNA concentration was measured using NanoDrop 2000. cDNA was synthesized via reverse transcription using recombinant Moloney murine leukemia virus reverse transcriptase (MultiScribe Reverse Transcriptase, Bio-Rad, Hercules, CA, USA) and the iScript cDNA Synthesis Kit (Bio-Rad, Hercules, CA, USA). Gene expression was analyzed using real-time PCR using the SsoAdvanced Universal SYBR Green Supermix Kit (Bio-Rad, Hercules, CA, USA). Relative quantification was calculated using the ΔΔCt method.

`Cc1cc2c(s1)Nc1ccccc1N=C2N1CCN(C)CC1` [olanzapine] was tested, and the “canonical PKCs (cPKCs) and atypical PKCζ activation state” value (PKCζ; Western blot) was “activation”, the “increase in nuclear P-PKCζ T560” value (PKCζ; immunofluorescence) was 2 fold and the “levels of cathepsin B” value (cathepsin B) was “elevated levels”. For the same compound, the vacuolization induction (ADSCs [1]) was “absent”, the short-term transferrin endocytosis (ADSCs [2]) was “significant reduction” and the “effects on cell viability” value (ADSCs [3]) was “negligible effects”. For the same compound, the “quantity and average size of lipid droplets” value (ADSCs [4]) was “notably decreased”, the “reduction in lipid accumulation” value (ADSCs [4]) was “approximately 30%” and the PA accumulation (3T3L1 cells) was “significant accumulation”. For the same compound, the “increase in TFEB nuclear localization” value (TFEB) was 50% and the “expression of genes related to adipogenesis (PPARG, FABP4, HSL, LPL)” value [5] was “significantly reduced expression”.
